Columns and labels:
Settings in all cases: 72 h
[1] = tested on: Calu-3; assay: drug sensitivity score (DSS) for viability; higher = more toxic; extreme values may be limits of the assay
[2] = tested on: U2OS; assay: as above
[3] = tested on: HepG2; assay: as above
[4] = tested on: Vero E6; assay: as above
[5] = tested on: Caco-2; assay: as above
[6] = tested on: Calu-3; assay: cell viability relative to DMSO; higher = less toxic
[7] = tested on: U2OS; assay: as above
[8] = tested on: HepG2; assay: as above
[9] = tested on: Vero E6; assay: as above
[10] = tested on: Caco-2; assay: as above
[11] = tested on: Calu-3; assay: relative viability EC50 (midpoint between 100% and the lowest measured viability); higher = less toxic
[12] = tested on: U2OS; assay: as above
[13] = tested on: HepG2; assay: as above
[14] = tested on: Vero E6; assay: as above
[15] = tested on: Caco-2; assay: as above

What does the source list for COc1ccc2c(c1)C(=O)N(CCc1ccc(S(=O)(=O)NC(=O)NC3CCCCC3)cc1)C(=O)C2(C)C [gliquidone]?
drug sensitivity score [1]: 0; drug sensitivity score [2]: 0; drug sensitivity score [3]: 0; drug sensitivity score [4]: 0; drug sensitivity score [5]: 0; cell viability ([6]; 1 nM): 106%; cell viability ([6]; 10 nM): 96.5%; cell viability ([6]; 100 nM): 99.9%; cell viability ([6]; 1000 nM): 104%; cell viability ([6]; 10000 nM): 106%; cell viability ([7]; 1 nM): 91%; cell viability ([7]; 10 nM): 89.3%; cell viability ([7]; 100 nM): 102%; cell viability ([7]; 1000 nM): 87.1%; cell viability ([7]; 10000 nM): 95.9%; cell viability ([8]; 1 nM): 103%; cell viability ([8]; 10 nM): 98.9%; cell viability ([8]; 100 nM): 96.4%; cell viability ([8]; 1000 nM): 106%; cell viability ([8]; 10000 nM): 106%; cell viability ([9]; 1 nM): 97.8%; cell viability ([9]; 10 nM): 99.5%; cell viability ([9]; 100 nM): 92.3%; cell viability ([9]; 1000 nM): 100%; cell viability ([9]; 10000 nM): 94.9%; cell viability ([10]; 1 nM): 88.1%; cell viability ([10]; 10 nM): 95.3%; cell viability ([10]; 100 nM): 109%; cell viability ([10]; 1000 nM): 102%; cell viability ([10]; 10000 nM): 101%; relative viability EC50 [11]: > 10 µM; relative viability EC50 [12]: > 10 µM; relative viability EC50 [13]: > 10 µM; relative viability EC50 [14]: > 10 µM; relative viability EC50 [15]: > 10 µM

Which results are given for CNC(=O)c1nn(C)c2c1C(C)(C)Cc1cnc(Nc3ccc(N4CCN(C)CC4)cc3)nc1-2?
drug sensitivity score [1]: 7.9; drug sensitivity score [2]: 11.6; drug sensitivity score [3]: 14.5; drug sensitivity score [4]: 14.8; drug sensitivity score [5]: 10.2; cell viability ([6]; 1 nM): 95.1%; cell viability ([6]; 10 nM): 100%; cell viability ([6]; 100 nM): 89%; cell viability ([6]; 1000 nM): 67.9%; cell viability ([6]; 10000 nM): 22.1%; cell viability ([7]; 1 nM): 99.7%; cell viability ([7]; 10 nM): 93.6%; cell viability ([7]; 100 nM): 97.3%; cell viability ([7]; 1000 nM): 47.4%; cell viability ([7]; 10000 nM): 3.6%; cell viability ([8]; 1 nM): 89.9%; cell viability ([8]; 10 nM): 102%; cell viability ([8]; 100 nM): 75.7%; cell viability ([8]; 1000 nM): 37.7%; cell viability ([8]; 10000 nM): 16.5%; cell viability ([9]; 1 nM): 91.9%; cell viability ([9]; 10 nM): 96.1%; cell viability ([9]; 100 nM): 85%; cell viability ([9]; 1000 nM): 31.2%; cell viability ([9]; 10000 nM): 6.4%; cell viability ([10]; 1 nM): 98.1%; cell viability ([10]; 10 nM): 92.2%; cell viability ([10]; 100 nM): 90.3%; cell viability ([10]; 1000 nM): 53%; cell viability ([10]; 10000 nM): 28.9%; relative viability EC50 [11]: 1.2 µM; relative viability EC50 [12]: 0.898 µM; relative viability EC50 [13]: 0.288 µM; relative viability EC50 [14]: 0.409 µM; relative viability EC50 [15]: 0.518 µM

How did the drug sensitivity score [1] turn out when COc1ccccc1C(=O)Nc1cccc(NC(=O)c2cccc(C)c2)c1 [ML365] was run?
The drug sensitivity score was 0.

And the drug sensitivity score [2]?
Its drug sensitivity score is 0.

And the drug sensitivity score [3]?
Its drug sensitivity score is 0.

What about the drug sensitivity score [4] of the same compound?
The drug sensitivity score was 0.

What about the drug sensitivity score [5] of the same compound?
The drug sensitivity score was 0.3.

And the cell viability ([6]; 1 nM)?
The cell viability was 99%.

What about the cell viability ([6]; 10 nM) of the same compound?
Its cell viability is 98.4%.

What about the cell viability ([6]; 100 nM) of the same compound?
Its cell viability is 96.2%.

And the cell viability ([6]; 1000 nM)?
Its cell viability is 98.4%.

What about the cell viability ([6]; 10000 nM) of the same compound?
The cell viability was 94.3%.

And the cell viability ([7]; 1 nM)?
Its cell viability is 107%.

What about the cell viability ([7]; 10 nM) of the same compound?
Its cell viability is 102%.

And the cell viability ([7]; 100 nM)?
Its cell viability is 103%.

What about the cell viability ([7]; 1000 nM) of the same compound?
The cell viability was 98.5%.

And the cell viability ([7]; 10000 nM)?
Its cell viability is 99%.

And the cell viability ([8]; 1 nM)?
Its cell viability is 113%.

And the cell viability ([8]; 10 nM)?
Its cell viability is 98.7%.

What about the cell viability ([8]; 100 nM) of the same compound?
The cell viability was 91.6%.

And the cell viability ([8]; 1000 nM)?
The cell viability was 116%.

And the cell viability ([8]; 10000 nM)?
The cell viability was 85.8%.

And the cell viability ([9]; 1 nM)?
The cell viability was 102%.

And the cell viability ([9]; 10 nM)?
Its cell viability is 100%.

What about the cell viability ([9]; 100 nM) of the same compound?
Its cell viability is 101%.

What about the cell viability ([9]; 1000 nM) of the same compound?
The cell viability was 98.2%.

What about the cell viability ([9]; 10000 nM) of the same compound?
Its cell viability is 95%.

And the cell viability ([10]; 1 nM)?
Its cell viability is 97.8%.

And the cell viability ([10]; 10 nM)?
Its cell viability is 101%.

And the cell viability ([10]; 100 nM)?
Its cell viability is 97.4%.

And the cell viability ([10]; 1000 nM)?
The cell viability was 92.8%.

What about the cell viability ([10]; 10000 nM) of the same compound?
Its cell viability is 86%.

And the “relative viability EC50” value [11]?
The value was greater than 10 µM.

And the “relative viability EC50” value [12]?
Its value is greater than 10 µM.

What about the “relative viability EC50” value [13] of the same compound?
The value was greater than 10 µM.

And the “relative viability EC50” value [14]?
Its value is greater than 10 µM.

And the “relative viability EC50” value [15]?
Its value is greater than 10 µM.
